Data taken from patent US20220033397A1, “PHARMACEUTICAL COMPOUNDS AND THEIR USE AS INHIBITORS OF UBIQUITIN SPECIFIC PROTEASE 19 (USP19)” (ALMAC DISCOVERY LIMITED, priority 2018, published 2022).

molecular target: T1, Full-length USP19 (Homo sapiens, UniProt O94966); test: USP19 fluorescence polarisation (FP) homogeneous assay with Ubiquitin-Lys-TAMRA substrate; assay type: biochemical; conditions: 2.5 nM USP19, 30 min pre-incubation, average of at least two duplicate experiments
T1 construct: Full-length USP19 was purchased from Boston Biochem (E-576); purchased Boston Biochem E-576
T1 sequence (O94966 1-1318): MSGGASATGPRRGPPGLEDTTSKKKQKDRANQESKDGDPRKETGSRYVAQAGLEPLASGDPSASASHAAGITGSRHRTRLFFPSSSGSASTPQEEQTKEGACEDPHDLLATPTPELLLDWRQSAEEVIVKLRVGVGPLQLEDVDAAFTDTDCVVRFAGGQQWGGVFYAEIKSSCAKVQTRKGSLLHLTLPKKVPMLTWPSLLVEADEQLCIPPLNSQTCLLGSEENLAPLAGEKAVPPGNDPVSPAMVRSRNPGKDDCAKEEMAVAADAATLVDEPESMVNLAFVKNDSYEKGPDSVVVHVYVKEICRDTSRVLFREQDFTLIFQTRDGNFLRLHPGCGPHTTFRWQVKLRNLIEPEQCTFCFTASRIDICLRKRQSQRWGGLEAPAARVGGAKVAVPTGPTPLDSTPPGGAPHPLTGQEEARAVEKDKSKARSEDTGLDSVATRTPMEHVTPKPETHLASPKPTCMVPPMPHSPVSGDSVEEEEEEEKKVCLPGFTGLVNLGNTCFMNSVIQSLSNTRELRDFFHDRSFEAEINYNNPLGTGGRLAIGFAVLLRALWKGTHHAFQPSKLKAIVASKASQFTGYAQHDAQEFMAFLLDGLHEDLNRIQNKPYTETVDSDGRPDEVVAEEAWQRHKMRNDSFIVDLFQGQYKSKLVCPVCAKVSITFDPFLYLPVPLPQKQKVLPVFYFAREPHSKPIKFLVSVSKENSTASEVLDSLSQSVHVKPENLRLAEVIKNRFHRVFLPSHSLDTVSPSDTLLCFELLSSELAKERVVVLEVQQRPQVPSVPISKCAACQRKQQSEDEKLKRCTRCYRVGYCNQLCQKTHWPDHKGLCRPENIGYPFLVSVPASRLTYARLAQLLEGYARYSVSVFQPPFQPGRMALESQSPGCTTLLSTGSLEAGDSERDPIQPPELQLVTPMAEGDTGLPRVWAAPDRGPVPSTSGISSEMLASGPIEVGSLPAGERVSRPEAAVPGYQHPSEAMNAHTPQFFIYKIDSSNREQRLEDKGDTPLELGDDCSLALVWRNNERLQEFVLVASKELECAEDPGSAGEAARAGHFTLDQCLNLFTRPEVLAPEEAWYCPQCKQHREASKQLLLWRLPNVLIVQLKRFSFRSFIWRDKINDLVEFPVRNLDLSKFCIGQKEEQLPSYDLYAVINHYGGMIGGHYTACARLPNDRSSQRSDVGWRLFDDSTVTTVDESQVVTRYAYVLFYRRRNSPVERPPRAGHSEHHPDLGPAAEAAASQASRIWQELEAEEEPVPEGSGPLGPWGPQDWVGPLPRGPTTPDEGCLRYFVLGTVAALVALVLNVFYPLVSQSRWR
How it was run: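 Full-length USP19 preincubated 30 min at RT with inhibitor (200 μM to 2 μM series, 8–18 points) before adding 500 nM Ubiquitin-Lys-TAMRA substrate.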

IC50, < 500 nM:
O=C(N1CC[C@@](O)(Cn2cnc(-c3ccccc3OC(F)(F)F)cc2=O)C2(CCCC2)C1)N1CCNC[C@H]1c1ccccc1 [Example 354, 3-(((S)-10-Hydroxy-7-((R)-2-phenylpiperazine-1-carbonyl)-7-azaspiro[4.5]decan-10-yl)methyl)-6-(2-(trifluorometh-oxy)phenyl) pyrimidin-4(3H)-one]
O=C(N1CC[C@@](O)(Cn2cnc(-c3ccccc3F)cc2=O)C2(CCCC2)C1)N1CCNC[C@H]1c1cccc(F)c1 [Example 355, 6-(2-Fluorophenyl)-3-(((S)-7-((R)-2-(3-fluorophenyl)pipera-zine-1-carbonyl)-10-hydroxy-7-aza-spiro[4.5]decan-10-yl)methyl)pyrimidin-4(3H)-one]
COc1ccccc1-c1cc(=O)n(C[C@]2(O)CCN(C(=O)N3CCNC[C@H]3c3cccc(F)c3)CC23CCCC3)cn1 [Example 356, 3-(((S)-7-((R)-2-(3-Fluorophenyl)pipera-zine-1-carbonyl)-10-hydroxy-7-azaspiro[4.5]decan-10-yl)methyl)-6-(2-methoxyphenyl)pyri-midin-4(3H)-one]
O=C(N1CC[C@@](O)(Cn2cnc(N3CC(F)(F)C3)cc2=O)C2(CCCC2)C1)N1CCNC[C@H]1c1ccccc1 [Example 357, 6-(3,3-Difluoro-azetidin-1-yl)-3-(((S)-10-hydroxy-7-((R)-2-phenylpiperazine-1-carbonyl)-7-aza-spiro[4.5]decan-10-yl)methyl)pyrimidin-4(3H)-one]
O=C(N1CC[C@@](O)(Cn2cnc(-c3ccccc3)cc2=O)C2(CCCC2)C1)N1CCNCC1c1cccs1 (stereo partly drawn) [Example 358, 3-(((10S)-10-Hy-droxy-7-(2-(thio-phen-2-yl)piperazine-1-carbonyl)-7-aza-spiro[4.5]decan-10-yl)methyl)-6-phenylpyrimidin-4(3H)-one]
O=C(N1CC[C@@](O)(Cn2cnc(N3CCC(F)(F)C3)cc2=O)C2(CCCC2)C1)N1CCNC[C@H]1c1ccccc1 [Example 359, 6-(3,3-Difluoro-pyrrolidin-1-yl)-3-(((S)-10-hydroxy-7-((R)-2-phenylpiperazine-1-carbonyl)-7-aza-spiro[4.5]decan-10-yl)methyl)pyrimidin-4(3H)-one]
O=C(N1CC[C@@](O)(Cn2cnc(-c3ccccc3C(F)(F)F)cc2=O)C2(CCCC2)C1)N1CCNC[C@H]1c1ccccc1 [Example 360, 3-(((S)-10-Hydroxy-7-((R)-2-phenylpiperazine-1-carbonyl)-7-azaspiro[4.5]decan-10-yl)methyl)-6-(2-(trifluoromethyl)phe-nyl)pyrimidin-4(3H)-one]
O=C(N1CC[C@@](O)(Cn2cnc(N3CCC(F)CC3)cc2=O)C2(CCCC2)C1)N1CCNC[C@H]1c1ccccc1 [Example 361, 6-(4-Fluoropiperidin-1-yl)-3-(((S)-10-hydroxy-7-((R)-2-phenylpiperazine-1-carbonyl)-7-aza-spiro[4.5]decan-10-yl)methyl)pyrimidin-4(3H)-one]
Cn1nc(C(F)(F)F)cc1-c1ccn(C[C@]2(O)CCN(C(=O)N3CCNC[C@H]3c3ccccc3)CC23CCCC3)c(=O)c1 [Example 362, 1-(((S)-10-Hydroxy-7-((R)-2-phenylpiperazine-1-carbonyl)-7-azaspiro [4.5]decan-10-yl)methyl)-4-(1-methyl-3-(trifluoromethyl)-1H-pyrazol-5-yl)pyri-din-2(1H)-one]
O=C(N1CC[C@@](O)(Cn2cnc(N3CCCC(F)(F)C3)cc2=O)C2(CCCC2)C1)N1CCNC[C@H]1c1ccccc1 [Example 363, 6-(3,3-Difluoro-piperidin-1-yl)-3-(((S)-10-hydroxy-7-((R)-2-phenylpiperazine-1-carbonyl)-7-azaspiro[4.5]decan-10-yl)methyl)pyrimi-din-4(3H)-one]
O=C(N1CC[C@@](O)(Cn2cnc(-c3ccccc3OC(F)F)cc2=O)C2(CCCC2)C1)N1CCNC[C@H]1c1ccccc1 [Example 364, 6-(2-(Difluoro-methoxy)phenyl)-3-(((S)-10-hydroxy-7-((R)-2-phenylpiperazine-1-carbonyl)-7-aza-spiro[4.5]decan-10-yl)methyl)pyrimidin-4(3H)-one]
O=C(N1CC[C@@](O)(Cn2cnc(-c3ccccc3OC3CC3)cc2=O)C2(CCCC2)C1)N1CCNC[C@H]1c1ccccc1 [Example 365, 6-(2-Cyclo-propoxyphenyl)-3-(((S)-10-hydroxy-7-((R)-2-phenylpipera-zine-1-carbonyl)-7-azaspiro[4.5]decan-10-yl)methyl)pyrimi-din-4(3H)-one]
O=C(N1CC[C@@](O)(Cn2cnc(-c3ccccc3C(F)F)cc2=O)C2(CCCC2)C1)N1CCNC[C@H]1c1ccccc1 [Example 366, 6-(2-(Difluoro-methyl)phenyl)-3-(((S)-10-hydroxy-7-((R)-2-phenylpiperazine-1-carbonyl)-7-aza-spiro[4.5]decan-10-yl)methyl)pyrimidin-4(3H)-one]
O=C(N1CC[C@@](O)(Cn2cnc(-c3ccccc3)cc2=O)C2(CCCC2)C1)N1CCNC[C@H]1c1cccc(F)c1F [Example 367, 3-(((S)-7-((R)-2-(2,3-Difluoro-phenyl)piper-azine-1-carbonyl)-10-hydroxy-7-azaspiro[4.5]decan-10-yl)methyl)-6-phenylpyrimidin-4(3H)-one]
O=C(N1CC[C@@](O)(Cn2cnc(-c3ccccc3)cc2=O)C2(CCCC2)C1)N1CCNC[C@H]1c1ccc(F)cc1F [Example 368, 3-(((S)-7-((R)-2-(2,4-Difluoro-phenyl)piper-azine-1-carbonyl)-10-hydroxy-7-azaspiro[4.5]decan-10-yl)methyl)-6-phenylpyrimidin-4(3H)-one]
O=C(N1CC[C@@](O)(Cn2cnc(-c3ccccc3)cc2=O)C2(CCCC2)C1)N1CCNC[C@H]1c1ccc(F)cc1 [Example 369, 3-(((S)-7-((R)-2-(4-Fluorophenyl)pipera-zine-1-carbonyl)-10-hydroxy-7-azaspiro[4.5]decan-10-yl)methyl)-6-phenylpyrimidin-4(3H)-one]
O=C(N1CC[C@@](O)(Cn2cnc(-c3ccccc3)cc2=O)C2(CCCC2)C1)N1CCNC[C@H]1c1ccccc1F [Example 370, 3-(((10S)-7-(2-(2-Fluorophenyl)pipera-zine-1-carbonyl)-10-hydroxy-7-azaspiro[4.5]decan-10-yl)methyl)-6-phenylpyrimidin-4(3H)-one]
Cn1ccc(-c2cc(=O)n(C[C@]3(O)CCN(C(=O)N4CCNC[C@H]4c4ccccc4)CC34CCCC4)cn2)n1 [Example 371, 3-(((S)-10-Hydroxy-7-((R)-2-phenylpiperazine-1-carbonyl)-7-aza-spiro[4.5]decan-10-yl)methyl)-6-(1-methyl-1H-pyrazol-3-yl)pyrimidin-4(3H)-one]
O=C1CN(C(=O)N2CC[C@@](O)(Cn3cnc(-c4ccccc4)cc3=O)C3(CCCC3)C2)[C@H](c2ccccc2)CN1 [Example 372, 3-(((S)-10-Hydroxy-7-((R)-5-oxo-2-phenylpiperazine-1-carbonyl)-7-azaspiro[4.5]decan-10-yl)methyl)-6-phenylpyrimidin-4(3H)-one]
O=C(N1CC[C@@](O)(Cn2cnc(-c3ccccc3)cc2=O)C2(CCCC2)C1)N1CCNC[C@H]1c1cc(F)ccc1F [Example 373, 3-(((S)-7-((R)-2-(2,5-Difluorophenyl)piper-azine-1-carbonyl)-10-hydroxy-7-azaspiro[4.5]decan-10-yl)methyl)-6-phenylpyrimidin-4(3H)-one]
O=C(N1CCC(O)(Cn2ccc(-c3ccccc3)cc2=O)C2(CCCC2)C1)N1CCNCC1c1cc(F)ccc1F [Example 374, 1-(((S)-7-((R)-2-(2,5-Difluorophenyl)piper-azine-1-carbonyl)-10-hydroxy-7-azaspiro[4.5]decan-10-yl)methyl)-4-phenylpyridin-2(1H)-one]
